Data set [1] deals with streptozotocin-induced diabetic mice. As to conditions: mouse, in vivo.
Procedure: Male C57BL/Ks mdb mice were injected with streptozotocin (40 mg/kg) for 5 consecutive days. […] Treatment with antagonists was started 3 days after STZ and lasted for 10 days. Plasma glucose was determined by the glucose oxidase method, and 13 days urinary samples were assayed for proteins, nitrites and kallikreins.
Male C57BL/Ksmdb mice, 3 month old were provided by National Institute of Genetic, Buenos Aires. The animals were housed at a constant room temperature, with a 12 h light-dark cycle.
Blood (50–60 ul) was collected from the tail vein of non fasting animals in heparinized capillary tubes. Blood samples were taken one day before starting the STZ injection and at the day 13, just before sacrifice. Blood samples were centrifuged and the plasma immediately diluted into the appropriate buffer. Plasma glucose was determined by a glucose oxidase method (the kit was obtained from Wiener, Argentina). […] Urinary volume was determined gravimetrically and urinary samples were assayed for proteins^45, nitrites^40 and kallikrein^47.
Streptozotocin was purchased from the Sigma Chem Co., St. Louis, Mo. […] The paranitroanilide (pNA) released by enzymatic action on the substrate was measured calorimetrically to determine kallikrein activity
All data were expressed as mean=S.E. Analysis of Variance (ANOVA) was performed to evaluate differences among the groups. p<0.05 was considered as significant.
Another data set addresses T1, BK-B1 receptor (Rattus norvegicus, UniProt P97583).
T1 construct: Segments of the portal vein (a known preparation for BK studies) from these rats were mounted in organ baths; from tissue; host or cells: rat portal vein segments (STZ-diabetic and normal rats)
T1 sequence (P97583 1-337): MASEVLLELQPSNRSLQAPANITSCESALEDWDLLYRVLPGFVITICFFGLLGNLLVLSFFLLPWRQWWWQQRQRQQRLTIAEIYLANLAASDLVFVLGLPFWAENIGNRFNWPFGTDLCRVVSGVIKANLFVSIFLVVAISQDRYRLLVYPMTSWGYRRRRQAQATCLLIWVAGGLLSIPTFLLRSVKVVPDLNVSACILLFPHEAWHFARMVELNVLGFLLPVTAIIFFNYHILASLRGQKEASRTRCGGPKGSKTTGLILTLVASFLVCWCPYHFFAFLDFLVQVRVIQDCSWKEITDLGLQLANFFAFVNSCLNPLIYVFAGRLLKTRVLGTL
As to the kind of experiment: Isometric contraction of portal vein segments from STZ-induced diabetic rats. As to conditions: P<0.001. The class given is cell-based. The source says:
Capillary permeability is known to be selectively augmented in the streptozotocin (STZ) diabetic rat model^49. The vascular BK receptors in the STZ-induced diabetic rat was examined. Segments of the portal vein (a known preparation for BK studies) from these rats were mounted in organ baths for isometric contraction studies. The response to desArg^9BK, a specific BK–B1 receptor agonist, was enhanced by 118% in the diabetic tissue, compared to normal portal veins (0.48 vs 0.22g: P<0.001). […] HOE140, the BK–B2 receptor antagonist, had no effect on the diabetic portal vein abnormality. Evans blue (EB: 20 mg/kg), a marker of albumin extravasation, was injected to unanesthetized diabetic rats. […] Therefore, it was concluded that post-capillary hypercontractility to BK (via its B1 receptor) forces EB extravasation, and likely contributed to the diabetic vasculopathy.

Data set [2] concerns the target T2, angiotensin-converting enzyme (ACE) from rabbit lungs (Oryctolagus cuniculus, UniProt P12822).
T2 sequence (P12822 34-1310): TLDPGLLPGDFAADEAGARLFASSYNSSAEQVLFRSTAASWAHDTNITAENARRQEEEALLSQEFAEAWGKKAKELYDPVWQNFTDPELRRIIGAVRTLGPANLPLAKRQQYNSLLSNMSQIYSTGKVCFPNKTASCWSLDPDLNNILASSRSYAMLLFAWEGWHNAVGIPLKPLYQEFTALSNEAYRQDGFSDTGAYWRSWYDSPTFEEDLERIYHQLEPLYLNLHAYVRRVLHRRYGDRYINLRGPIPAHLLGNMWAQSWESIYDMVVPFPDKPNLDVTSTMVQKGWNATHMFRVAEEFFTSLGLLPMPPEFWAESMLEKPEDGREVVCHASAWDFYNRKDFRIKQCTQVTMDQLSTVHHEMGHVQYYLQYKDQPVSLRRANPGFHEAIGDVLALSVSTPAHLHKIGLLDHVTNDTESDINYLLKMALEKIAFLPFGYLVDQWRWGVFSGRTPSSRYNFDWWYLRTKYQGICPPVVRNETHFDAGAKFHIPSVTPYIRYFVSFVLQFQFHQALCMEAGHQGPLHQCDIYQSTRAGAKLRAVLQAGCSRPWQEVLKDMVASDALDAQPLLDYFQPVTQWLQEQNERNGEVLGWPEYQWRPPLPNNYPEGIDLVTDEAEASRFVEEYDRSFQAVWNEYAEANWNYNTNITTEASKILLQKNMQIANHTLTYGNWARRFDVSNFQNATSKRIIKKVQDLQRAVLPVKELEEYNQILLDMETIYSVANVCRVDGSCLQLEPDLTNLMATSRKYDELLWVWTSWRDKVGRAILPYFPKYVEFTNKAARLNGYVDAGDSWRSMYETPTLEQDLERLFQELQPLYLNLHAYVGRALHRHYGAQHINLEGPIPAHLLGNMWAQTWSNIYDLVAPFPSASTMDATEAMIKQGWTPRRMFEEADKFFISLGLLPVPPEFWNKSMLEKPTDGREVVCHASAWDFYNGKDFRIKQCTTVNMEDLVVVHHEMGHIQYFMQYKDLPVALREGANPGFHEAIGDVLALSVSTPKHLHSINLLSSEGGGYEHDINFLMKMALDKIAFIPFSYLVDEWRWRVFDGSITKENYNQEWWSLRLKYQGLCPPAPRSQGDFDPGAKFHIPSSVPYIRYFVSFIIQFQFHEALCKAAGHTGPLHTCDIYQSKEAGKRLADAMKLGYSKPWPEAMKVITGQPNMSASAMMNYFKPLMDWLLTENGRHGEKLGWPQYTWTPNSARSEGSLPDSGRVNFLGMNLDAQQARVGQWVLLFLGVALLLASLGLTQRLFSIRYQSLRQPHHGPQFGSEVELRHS
As to conditions: cited from earlier work.

Turning to `NC(N)=NCCC[C@@H](N)C(=O)N[C@@H](CCCN=C(N)N)C(=O)N1CCC[C@H]1C(=O)N1C[C@H](O)C[C@H]1C(=O)NCC(=O)N[C@@H](Cc1cccs1)C(=O)N[C@@H](CO)C(=O)N1Cc2ccccc2C[C@@H]1C(=O)N1[C@H](C(=O)N[C@@H](CCCN=C(N)N)C(=O)O)C[C@@H]2CCCC[C@@H]21` [HOE140, D-Arg(Hyp^3, Thi^5, D-Tic^7, Oic^8)BK], in data set [1], the Body weight entry was “No changes of body weight”.

Regarding `N=C(N)NCCC[C@H](N)C(=O)N1CCC[C@H]1C(=O)N1CCC[C@H]1C(=O)NCC(=O)N[C@@H](Cc1ccccc1)C(=O)N[C@@H](CO)C(=O)N1CCC[C@H]1C(=O)N[C@@H](Cc1ccccc1)C(=O)O` [desArg^9BK, Arg-Pro-Pro-G1y-Phe-Ser-Pro-Phe], the “Enhancement of response in diabetic tissue compared to normal portal veins” value at BK-B1 receptor is recorded as 118%. In addition, the “Metabolism of naturally-occurring kinins by ACE” value in data set [2] is “fully metabolised”.

The record behind these values is US7041785B1, “B1-bradykinin receptor antagonists and use thereof” (Université de Sherbrooke, priority 1996, dated 2006).
